Here are results for 56 compounds from PubChem BioAssay AID1645862 (Buhrlage Lab, Dana-Farber Cancer Institute and Novartis …, 2021).

In general, IC50 refers to the concentration that gives 50% inhibition.

The source made the active and inactive calls. The rule behind the calls is not given here. Bridge positions count the residues as written; N and C are the ends. Peptide text beside a SMILES is read from it. * marks the point of attachment. ξ: configuration not given here. Pentadecanoyl(3ξ-OH,15-Gua) = N=C(N)NCCCCCCCCCCCCC(O)CC(=O)* Where only a bound is given, the exact number is not on record here.

For the assay, the target named is Ubiquitin carboxyl-terminal hydrolase 8 (Homo sapiens) (UniProt P40818). Put plainly: Ubiquitin-specific protease 8 inhibitors, concentration-effect, biochemical, validation of initial actives (AID 1645862).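 Note: potency reflects inhibition of USP8 cleavage of a ubiquitin rhodamine substrate.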 Particulars: recombinant USP8 deubiquitinase activity assay.
Ubiquitin carboxyl-terminal hydrolase 8 (Homo sapiens), sequence (P40818 whole entry, looked up): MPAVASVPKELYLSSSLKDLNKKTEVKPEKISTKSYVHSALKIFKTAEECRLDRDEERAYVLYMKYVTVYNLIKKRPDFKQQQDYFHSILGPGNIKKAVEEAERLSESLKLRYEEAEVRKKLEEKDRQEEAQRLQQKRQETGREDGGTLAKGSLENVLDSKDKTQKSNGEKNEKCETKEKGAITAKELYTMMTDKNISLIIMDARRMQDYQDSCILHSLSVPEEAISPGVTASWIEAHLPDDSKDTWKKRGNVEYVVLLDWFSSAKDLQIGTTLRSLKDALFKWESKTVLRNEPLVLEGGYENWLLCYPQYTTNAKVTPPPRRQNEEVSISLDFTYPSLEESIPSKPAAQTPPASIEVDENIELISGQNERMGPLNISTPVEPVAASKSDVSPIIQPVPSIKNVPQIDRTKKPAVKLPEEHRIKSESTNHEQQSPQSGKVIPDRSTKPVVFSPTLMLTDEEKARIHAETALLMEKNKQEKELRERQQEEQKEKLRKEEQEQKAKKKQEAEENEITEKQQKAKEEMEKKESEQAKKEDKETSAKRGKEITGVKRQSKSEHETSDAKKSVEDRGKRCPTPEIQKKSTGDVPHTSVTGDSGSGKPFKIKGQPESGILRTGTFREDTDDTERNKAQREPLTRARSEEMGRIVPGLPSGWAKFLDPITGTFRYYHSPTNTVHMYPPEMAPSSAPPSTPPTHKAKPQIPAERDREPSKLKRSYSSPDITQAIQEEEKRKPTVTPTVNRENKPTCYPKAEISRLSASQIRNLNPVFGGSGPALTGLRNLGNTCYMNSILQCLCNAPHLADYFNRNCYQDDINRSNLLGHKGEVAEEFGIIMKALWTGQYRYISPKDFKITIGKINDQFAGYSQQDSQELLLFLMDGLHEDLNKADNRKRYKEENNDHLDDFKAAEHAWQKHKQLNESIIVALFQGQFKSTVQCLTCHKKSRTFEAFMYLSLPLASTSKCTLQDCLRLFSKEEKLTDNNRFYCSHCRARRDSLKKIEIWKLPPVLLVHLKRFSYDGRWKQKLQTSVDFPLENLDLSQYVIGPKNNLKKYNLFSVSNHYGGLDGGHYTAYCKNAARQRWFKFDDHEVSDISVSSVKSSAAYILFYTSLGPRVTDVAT

As to `CS(=O)(=O)c1ccc2nc(N(Cc3cccnc3)C(=O)c3ccc4ccccc4c3)sc2c1`, the IC50 was > 40 µM (inactive). The result for `O=C(/C=C/C=C/C=C/C1CCCCC1)NC1=C[C@@](O)(/C=C/C=C/C=C/C(=O)NC2=C(O)CCC2=O)[C@@H]2O[C@@H]2C1=O` reads > 40 µM (inactive). As for `O=C(NCc1ccco1)c1ccc(Cn2c(SCc3ccccc3)nc3ccncc32)cc1`, the figure is > 40 µM (inactive). The result for `CCOc1ccc(-c2ccc3nnc(SCC(=O)Nc4ccc(F)cc4)n3n2)cc1` reads > 40 µM (inactive); that for `O=C(COc1ccc(N2CC(C(=O)NCc3ccccc3)CC2=O)cc1)Nc1ccc(F)cc1` (stereo unspecified), > 40 µM (inactive). Turning to `NS(=O)(=O)c1cccc(NS(=O)(=O)c2ccc(/C=C/C(=O)OCC(=O)c3ccc(Br)cc3)cc2)c1`, the IC50 was > 40 µM (inactive). The result for `O=C(Nc1ccccc1-c1nc2ccccc2[nH]1)c1sc2ccccc2c1Cl` reads 10.5 µM. Consider `COc1cn(-c2ccc(F)cc2)nc1C(=O)Nc1ccc(Cl)cc1Cl`, for which the IC50 was 15.1 µM. Consider `Cc1ccc(NC(=O)Nc2nnc(CC(=O)NCc3ccccc3)s2)cc1F`, for which the IC50 was > 40 µM (inactive). The result for `CCN(CC)C(=O)c1sc(NC(=O)/C=C/c2c(F)cccc2Cl)c(C#N)c1C` reads > 40 µM (inactive); that for `CCOc1ccc2c(c1)c(=O)c(C(=O)c1ccccc1)cn2CC(=O)Nc1ccc(OC)cc1`, > 40 µM (inactive); that for `O=C1CC(O)C(O)c2cccc(O)c21` (stereo unspecified), > 40 µM (inactive).

For `CC(C)CC(NC(=O)c1ccc(Cl)cc1Cl)c1nc2ccccc2[nH]1` (stereo unspecified), the IC50 is > 40 µM (inactive).

With `Cc1cc(-c2nnc(SCC(=O)Nc3ccc(Br)c(C)c3)n2N)n[nH]1`, the IC50 was > 40 µM (inactive).

As for `CCCCCCC1CCC(O)CC(O)CC(O)CC(O)CC(O)CC(O)/C(C)=C/C=C\C=C/C=C/C=C/[C@H](O)[C@@H](C)OC1=O` (stereo partly specified), the IC50 was > 40 µM (inactive). As to `Cc1cc(C)cc(NC(=O)C2CC(=O)Nc3nc4ccccc4n32)c1` (stereo unspecified), the IC50 was > 40 µM (inactive). As to `O=C(CCCCn1c(=O)[nH]c2ccccc2c1=O)Nc1cccc(Cl)c1`, the IC50 was > 40 µM (inactive).

`O=C(Nc1c2c(nn1-c1ccc([N+](=O)[O-])cc1)CSC2)c1c(F)cccc1F`: the IC50 is > 40 µM (inactive). As to `Cc1ccc(-n2cc(C(=O)NCCCc3ccccc3)nn2)cc1`, the IC50 was > 40 µM (inactive). The result for `CC1NC(=O)C(CC(N)=O)NC(=O)C(C(C)O)NC(=O)C(Cc2ccc(O)cc2)NC(=O)C(C(C)C)NC(=O)C(NC(=O)CC(O)CCCCCCCCCCCCN=C(N)N)C(C)OC1=O` (stereo unspecified) ({Pentadecanoyl(3ξ-OH,15-Gua)}-TVYTNA; ester 1-C; configuration not given here) reads > 40 µM (inactive); that for `O=C1CC(c2cc3c(cc2Br)OCO3)c2cc3c(cc2N1)OCCO3` (stereo unspecified), > 40 µM (inactive); that for `Cc1c(C(=O)OCC(=O)Nc2ccc3c(c2)OCO3)oc2ccc(Br)cc12`, > 40 µM (inactive). As for `CSc1ncccc1C(=O)NC1(O)C(=O)c2ccccc2C1=O`, the figure is 5.16 µM. The result for `O=C(COc1ccc(N2CC(C(=O)NCc3ccccc3)CC2=O)cc1)Nc1ccccc1Cl` (stereo unspecified) reads > 40 µM (inactive); that for `Cc1ccccc1NC(=O)Cn1ccc2ccn(Cc3ccccc3)c2c1=O`, > 40 µM (inactive); that for `Cc1cc(C(=O)Nc2cc([N+](=O)[O-])cc3oc(-c4ccccc4)cc23)on1`, > 40 µM (inactive). As to `Cc1cccc(C)c1NC(=O)Cn1c(=O)n(CCCCC(=O)NCc2ccc3c(c2)OCO3)c(=O)c2ccccc21`, the IC50 is > 40 µM (inactive).

On to `Cc1ccc(N2CC(c3nc4ccccc4n3CCOc3cccc(C)c3)CC2=O)cc1` (stereo unspecified), for which the IC50 is > 40 µM (inactive). The result for `O=C(COc1ccc(Cl)cc1)Nc1noc(-c2ccccc2)n1` reads 39.3 µM; that for `COc1cccc(-c2cncc(C3CCN(S(=O)(=O)N(C)C)CC3)n2)c1`, > 40 µM (inactive); that for `CC(=O)[C@H]1c2c(c(O)c3c(O)cccc3c2-c2c3c(c(O)c4c(O)cccc24)C(=O)C[C@](C)(O)[C@H]3C(C)=O)C(=O)C[C@]1(C)O`, 24.5 µM. On to `Cc1ccccc1NC(=O)Cc1csc2nc(-c3ccc(F)cc3)cn12`, for which the IC50 is > 40 µM (inactive). The result for `O=C(Cn1c(=O)n(CC2CCC(C(=O)NC3CCCC3)CC2)c(=O)c2ccccc21)NCCC1=CCCCC1` (stereo unspecified) reads > 40 µM (inactive). As for `Cc1ccc(NC(=O)Nc2ccc(C)n(CC(=O)Nc3ccc(C)c(C)c3)c2=O)cc1`, the figure is 39.2 µM.

For the compound `Cc1ccc(C(=O)c2cn(CC(=O)Nc3ccccc3)c3ccccc3c2=O)cc1`, the IC50 was > 40 µM (inactive). As for `O=C(c1ccccn1)N1CCC2(CC1)CC1(CO2)Nc2ccccc2-n2cccc21` (stereo unspecified), the figure is 23.1 µM; as for `CCOc1ccc(NC(=O)Cn2c(=O)n(CCCCCC(=O)NCc3ccc(F)cc3)c(=O)c3sccc32)cc1`, > 40 µM (inactive); as for `CCc1cccc(C)c1NC(=O)Cn1nc2ccc(C(=O)NCc3ccccc3)cn2c1=O`, > 40 µM (inactive). As for `O=C(Nc1ccc(F)cc1F)NC1CCN(c2ccccc2)C1=O` (stereo unspecified), the figure is > 40 µM (inactive); as for `Cc1nc(-c2ccc(Cl)cc2)oc1C(=O)Nc1ccc(Cl)cc1`, > 40 µM (inactive). The result for `COc1ccc(COc2ccc3c(C)c(CC(=O)N4CC[C@@]5(O)CCCC[C@H]5C4)c(=O)oc3c2)cc1` reads > 40 µM (inactive). For `Cc1ccc(-n2cc(-c3noc(C(=O)Nc4ccc(F)cc4C)n3)nn2)cc1`, the IC50 is 7.16 µM. The result for `Cc1ccc(C(=O)NC(C)c2ccccc2)cc1NC(=O)c1nsc2ccccc12` (stereo unspecified) reads > 40 µM (inactive). As for `O=C(Nc1ccc(C(F)(F)F)cc1)C1CC(=O)N(c2ccc3c(c2)OCCO3)C1` (stereo unspecified), the figure is > 40 µM (inactive); as for `CCc1ccc(NC(=O)C(C)OC(=O)/C=C/c2ccc(S(=O)(=O)Nc3cccc(S(N)(=O)=O)c3)cc2)cc1` (stereo unspecified), > 40 µM (inactive); as for `Nc1c(-c2nc(-c3ccccc3Cl)no2)nnn1-c1ccc(Cl)cc1`, 4.79 µM. Take `COc1ccc(NC(=O)[C@H](C)NC(=O)c2cc3c(OC)cccc3[nH]2)cc1Cl`: the IC50 was > 40 µM (inactive).

`COCCCN1CCS(=O)(=O)c2c(Cl)c(F)nc(Oc3ccc(C#N)cc3)c21`: the IC50 was > 40 µM (inactive). As for `Cc1cc(C(=O)CSc2nc3ccccc3[nH]2)c(C)n1Cc1ccco1`, the figure is > 40 µM (inactive). The result for `Cn1c2ccccc2c(=O)c2c(=O)n(-c3cccc(Cl)c3)c(-c3cccs3)nc21` reads 4.52 µM.

Regarding `Cc1ccc(C(=O)O)cc1NC(=O)C(Sc1cccc(NC(=O)c2ccccc2C)c1)c1ccccc1` (stereo unspecified), the IC50 was > 40 µM (inactive). As for `Cn1c(=O)n([C@@H](Cc2ccccc2)C(=O)N[C@@H](C(=O)O)c2ccc(O)cc2)c(=O)c2ccccc21`, the figure is > 40 µM (inactive); as for `CO/C=C/C(=O)c1cc2cnc3c(=N)cc(NC(C)=O)c([nH]1)c23`, 1.44 µM; as for `c1ccc(CNc2ccc(-c3ccccc3)nn2)cc1`, > 40 µM (inactive). The result for `O=C(c1cccnc1)N1CCN(c2cc(-c3ccccc3)[nH]n2)CC1` reads > 40 µM (inactive); that for `Cc1cc(C)c(C#N)c(N2CCN(CCOc3ccc(Cl)cc3)CC2)n1`, > 40 µM (inactive).
